The data set in a line: gradient 5% acetonitrile 3 min, to 50% in 2 min, to 85% in 15 min, held 3 min, 100 µL/min. The following applies: column: Zorbax Extend-C18 2.1 x 50 mm; eluents: water / acetonitrile, 0.1% formic acid. The gist of the method:
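Retention time was recorded from adduct peaks, which were picked computationally and each inspected manually. Pure standards ran in mixtures of ~100 molecules on HPLC coupled to a quadrupole time-of-flight mass spectrometer, in positive and negative ionization mode, through a Zorbax Extend-C18 column (2.1 × 50 mm, 1.8 μm) at 100 μL/min. Eluents were water and acetonitrile, each with 0.1% formic acid.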
Regarding `CCc1noc(NC(C)=O)c1-c1ccc(OC)c(S(=O)(=O)NCc2ccccc2C)c1`, the RP-LC retention time stood at 884 s.
The value for `COc1cccc(CNC(=O)C2CCCN(c3nnc(C)c4c(C)n(-c5ccccc5)nc34)C2)c1` (stereo not given) was 715 s.
In the case of `Cc1cc2n(n1)CCCN2Cc1ccc(C(=O)NCCCN2CCCC2=O)cc1` it was 587 s; in that of `CCOc1ccc(-n2nnc(-c3nc(-c4cccc(OC)c4)cs3)c2N)cc1`, 1130 s.
In the case of `CCCn1c(C2CCN(C(=O)Nc3cccc(C)c3)C2)nc2cccnc21` (stereo not given) it was 713 s; in that of `COc1ccc(-c2nn(CCCC(=O)NCCc3ccc(C)cc3)c(=O)c3noc(C)c23)cc1`, 950 s.
`CCOc1ccc2nc(NC(=O)C3CCN(S(=O)(=O)c4cn(C(C)C)cn4)CC3)sc2c1`: the RP-LC retention time was 829 s.
The value for `COc1ccc(-c2nc(Cc3noc(Cc4cccc(F)c4)n3)c(C)o2)cc1` was 1000 s.
The value for `O=C(Cc1nnc(-c2ccccc2)o1)NC1CCCCC1` was 787 s.
`CCn1cc(S(=O)(=O)Nc2ccc(OC)cc2)c2cccnc21` registered an RP-LC retention time of 786 s.
As for `CN(C)C(=O)CN1C(=O)CCSc2ccccc21`, the RP-LC retention time came to 665 s.
In the case of `CCCNc1nc(C(=O)OCC)nc2ccccc12` it was 626 s.
In the case of `Cc1ccc(C2CC(=O)c3cnc(N4CCN(c5ccccn5)CC4)nc3C2)cc1` (stereo not given) it was 727 s.
On to `O=C(NCCc1cccs1)c1ccc2nc(Cc3ccccc3)oc2c1`, for which the RP-LC retention time was determined as 949 s.
Consider `COc1ccccc1NC(=O)N1CCC2(CC1)NC(=O)c1cc(Cl)ccc1N2C`, for which the RP-LC retention time was determined as 806 s.
In the case of `O=S(=O)(c1cc(-c2cc(C(F)(F)F)on2)cs1)N1CCN(c2cccc(Cl)c2)CC1` it was 1300 s; in that of `O=C(NC1CC1)c1cccc2c1CCN2C(=O)C1CC1`, 649 s; in that of `CCNC(=O)N1CCCC(c2cccc(C(=O)NCc3ccc(C)c(C)c3)c2)C1` (stereo not given), 866 s.
`Fc1cccc(-c2nc(-c3cn(-c4cccc(F)c4)nn3)no2)c1` came in with an RP-LC retention time of 1090 s.
`O=C1CCCc2cc(S(=O)(=O)N3CCN(c4cccc(Cl)c4)CC3)ccc2N1`: the RP-LC retention time worked out at 928 s.
The value for `COCCn1cc(CC(=O)N2CCN(c3ccccn3)CC2)c2cccnc21` was 569 s.
As to `CCOc1ccc(S(=O)(=O)N2CCCC(C(=O)NCc3cccnc3)C2)cc1` (stereo not given), the RP-LC retention time was 650 s.
The value for `CCC(C)NC(=O)c1cc(=O)[nH]c2ccccc12` (stereo not given) was 645 s.
On to `CCn1nnc2ccc(-c3noc(-c4ccc(C)cc4)n3)cc21`, for which the RP-LC retention time worked out at 1140 s.
The compound `COc1ccc(C(=O)NC2CCN(c3cc(-c4ccc(OC)cc4)[nH]n3)C2)cc1` (stereo not given) had an RP-LC retention time of 706 s.
The value for `COCC(C)(O)CNC(=O)C(=O)Nc1cccc(F)c1` (stereo not given) was 675 s.
The compound `COc1ccc(OC)c(-c2cc(C(=O)Nc3ccc4c(c3)CCC(=O)N4)[nH]n2)c1` gave an RP-LC retention time of 681 s.
The value for `CSc1cccc(NC(=O)Cn2c(=O)n(-c3ccc(F)cc3)c(=O)c3c2cc(C)n3C)c1` was 896 s.
The value for `O=C(Cc1cn2cc(Br)ccc2n1)Nc1ccc2c(c1)OCCO2` was 608 s.
The value for `Cc1ccc(C)c(NC(=O)C2CCc3nc(N4CCOCC4)ncc3C2)c1` (stereo not given) was 753 s; that for `CCCCn1cc(S(=O)(=O)N2CCN(c3ccc(F)cc3)CC2)c2cccnc21` was 1120 s; that for `Cc1ccc(-c2noc(Cn3c(=O)n(-c4ccccc4F)c(=O)c4sccc43)n2)cc1C` was 1090 s.
In the case of `CCOc1ccccc1NC(=O)Cn1nc(C(=O)N2CCCC2)c2ccccc21`, the RP-LC retention time amounted to 917 s.
In the case of `CCn1c(CCNC(=O)c2ccc(Cl)cc2)nc2cccnc21` it was 653 s; in that of `COc1ccc(-n2c(=O)c(C(=O)NC3CCCC3)c(O)c3cccnc32)cc1`, 1170 s.
The value for `CSc1ccc(CNC(=O)Cn2cnc3nc4c(cc3c2=O)CCCC4)cc1` was 733 s; that for `COCc1nncn1C1CCN(S(=O)(=O)c2ccccc2C(F)(F)F)CC1` was 725 s; that for `Cc1ccc2c(c1)N(S(C)(=O)=O)CCC(C(=O)Nc1ccc(F)c(F)c1)O2` (stereo not given) was 960 s.
Compound `Cc1oc(C(C)C)nc1C(=O)Nc1ccc(F)c(Cl)c1` displayed an RP-LC retention time of 1170 s.
In the case of `COc1cccc(C(=O)Nc2c(-c3ccccc3)nc3ccccn23)c1OC` it was 666 s.
The value for `CNC(=O)N1CCC(C2CCN(C(=O)c3ccc(Cl)s3)C2)CC1` (stereo not given) was 705 s; that for `Cc1nnc(C(C)C)n1C1C[C@H]2CC[C@@H](C1)N2CC[C@H](NC(=O)C1CCC(F)(F)CC1)c1ccccc1` (stereo not given in full) was 666 s.
In the case of `Cc1nn(-c2ccc(Cl)nn2)c2c1CCC2` it was 946 s.
Compound `O=S(=O)(Nc1cccn2cnnc12)c1ccc2c(c1)CCC2` showed an RP-LC retention time of 736 s.
In the case of `COc1ccc(CNCCc2c(C)[nH]c3ccc(F)cc23)cc1OC`, the RP-LC retention time is 571 s.
The value for `COc1ccc(CNc2c(C(=O)OC(C)C)cnc3nc(C)ccc23)cc1` was 740 s; that for `O=C(Nc1ccc(N2CCOCC2)cc1)C1CCCN(c2ccnc(-c3ccc(F)cc3)n2)C1` (stereo not given) was 649 s.
In the case of `CCOc1ccc(NC(=O)NCC2CCOCC2)cc1` it was 685 s.
In the case of `COc1ccc(-n2c(=O)n(C)c(=O)c3cc(C(=O)Nc4cc(F)cc(F)c4)cnc32)cc1` it was 970 s; in that of `CCOc1ccc(-n2nnc(-c3nc(C)c(C(=O)N4CCC(C(N)=O)CC4)s3)c2C)cc1`, 719 s; in that of `Cc1nc2c(sc3nc(-c4ccccc4)ccc32)c(=O)n1CC(=O)Nc1ccc2c(c1)OCO2`, 985 s.
With `N#Cc1ccc(-c2nc(-c3ccc(S(=O)(=O)N4CCC(C(=O)N5CCCC5)CC4)cc3)no2)cc1`, the RP-LC retention time was 947 s.
Compound `Cc1ccc(-c2noc(C3CCCN3S(=O)(=O)c3ccc(C)c(Cl)c3)n2)cc1` (stereo not given) had an RP-LC retention time of 1290 s.
The value for `Clc1ccccc1-c1noc(Cc2nnc(-c3ccccc3)o2)n1` was 978 s; that for `CNC(=O)C1CCCN(c2nc3ncn(CC(=O)Nc4ccc5c(c4)OCO5)c(=O)c3s2)C1` (stereo not given) was 1110 s.
In the case of `O=C(Nc1cc(-c2cccs2)no1)C1CCC1` it was 862 s.
For `O=C(CC1CCCC1)Nc1ccc(N2CCN(C3CCCC3)C2=O)nc1`, the RP-LC retention time turned out to be 801 s.
`Cc1cc(C)cc(NC(=O)NCC2(N3CCOCC3)CCOC2)c1` (stereo not given) came in with an RP-LC retention time of 617 s.
In the case of `CCc1nn2c(CNS(=O)(=O)c3ccc(F)cc3F)c(-c3ccccc3)nc2s1` it was 942 s; in that of `CCN1C(=O)c2cccc3c(NC(=O)c4c(F)cccc4F)ccc1c23`, 739 s.
As to `Cc1noc(/C=C/c2ccc(S(=O)(=O)NCC3CCCO3)s2)c1NC(=O)C1CC1` (stereo not given), the RP-LC retention time came out at 677 s.
The value for `Cc1cc(C(=O)Nc2ccccc2Cl)nc2cc(-c3ccco3)nn12` was 1280 s.
On to `CCOCCCNC(=O)c1c(N)n(-c2ccc(C(C)=O)cc2)c2nc3ccccc3nc12`, for which the RP-LC retention time was found to be 876 s.
In the case of `CN1CCn2cc(S(=O)(=O)Nc3ccc(Cl)cc3F)cc2C1=O` it was 723 s.
In the case of `COc1ccc(OC)c(-c2[nH]ncc2CN2CC(F)(F)C[C@H]2CN2CCOCC2)c1` it was 606 s; in that of `Cc1cc(C)cc(NC(=O)C(=O)NCC(c2ccc3c(c2)CCCN3C)N2CCOCC2)c1` (stereo not given), 601 s.
The value for `Cc1cc(C(=O)Nc2nnc(Cc3ccc4c(c3)OCO4)o2)c(C)o1` was 722 s.
The compound `Cn1nccc1-c1csc(S(=O)(=O)NC2CC2)c1` displayed an RP-LC retention time of 713 s.
As for `COc1ccccc1CNS(=O)(=O)c1cc2n(c1)CCN(C(C)C)C2=O`, the RP-LC retention time came out at 784 s.
`COc1ccc(-c2nnc(CC(=O)NC3CCCCCC3)o2)cc1` had an RP-LC retention time of 780 s.
In the case of `O=S(=O)(NCCOc1cc(N2CCCC2)ncn1)c1ccc(Cl)s1` it was 664 s; in that of `COc1ccc(-c2cn3c(CC(=O)Nc4cccnc4)csc3n2)cc1OC`, 581 s.
In the case of `CCN1CCC2(CC1)N=C(c1ccc(F)cc1)CC(c1cccc(OC)c1O)N2` (stereo not given) it was 592 s.
The value for `CCc1ccc(NC(=O)N2CCc3c(c(-c4nnc(-c5ccc(F)cc5)o4)nn3C)C2)cc1` was 965 s.
In the case of `COc1ccc(Cl)cc1NC(=O)N1CCC(n2cnc3ccc(F)cc3c2=O)CC1`, the RP-LC retention time was determined as 871 s.
Regarding `CC(=O)Nc1ccc(-n2c(C)nc3ccccc3c2=O)cc1C`, the RP-LC retention time was 621 s.
Consider `Cc1ccc(NC(=O)Nc2c(-c3ccncc3)nc3ccccn23)cc1F`, for which the RP-LC retention time came out at 630 s.
`Cc1ccc(-n2cc(C(=O)NCc3ccccc3Cl)nn2)cc1` returned an RP-LC retention time of 921 s.
Take `CCc1noc2nc(CCC(=O)NCCCN3CCN(C)CC3)nc(N3CCCCC3)c12`: the RP-LC retention time came to 599 s.
Turning to `Cc1ccc(S(=O)(=O)CCc2noc(-c3ccc4c(c3)OCO4)n2)cc1`, the RP-LC retention time is 931 s.

The record behind these values is the METLIN SMRT retention time set (Domingo-Almenara et al. 2019).
